How the values were obtained:
Puccinia recondita = assay: Example F: in vivo test on Puccinia recondita (wheat brown rust); conditions: 240 h, wheat plants sprayed 24 hours before inoculation, scored after 10 days, read-out: % Wirkungsgrad
Experimental: In Vivo Test on Puccinia Recondita (Wheat Brown Rust) An aqueous suspension of the active substance was prepared by homogenization of a mixture of acetone/Tween/dimethyl sulphoxide and subsequent dilution with water to the desired concentration. Wheat plants (variety: Scipion) are sown in cultivation dishes on a peat-pozzolanic earth substrate (50/50) at 12° C. and sprayed at the first-leaf stage (10 cm size) with the aqueous suspension described above. As a control, plants are sprayed with an aqueous solution with no active substance. After 24 hours the plants are inoculated by spraying with an aqueous suspension of Puccinia recondita spores (100,000 spores per ml). The spores are derived from a 10 day-old infected wheat crop and are suspended in water with 2.5 ml/l Tween. […] After 10 days they are scored in comparison with the control plants.

[1] = test system: Mycosphaerella graminicola; assay: Example G: in vivo test on Mycosphaerella graminicola (wheat leaf blotch disease); conditions: Zymoseptoria tritici, wheat plants sprayed 24 hours before inoculation, scored after 21 to 28 days, read-out: % Wirkungsgrad
Procedure, shortened: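 Scipion wheat at first-leaf stage (10 cm) was sprayed with aqueous active-substance suspension, then inoculated 24 hours later with Mycosphaerella graminicola spores (500,000 spores per ml) from 7 day-old culture. Disease was scored after 21 to 28 days against untreated sprayed controls.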

Pyricularia grisea = assay type: in vivo; conditions: 500 ppm; rice plants sprayed 24 hours before inoculation; scored after 6 days

Compound	pest or weed control at 500 ppm (Puccinia recondita)	pest or weed control at 500 ppm [1]	% Activity level (Pyricularia grisea)
CC(C)C(=O)Nc1cc(-c2cn(C(C)C)nc2-c2ccc(F)cc2)ccn1 [Compound 84]	78%	98%	–
CC(C)n1cc(-c2ccnc(NC(=O)C3CC3)c2)c(-c2ccc(F)cc2)n1 [Compound 86]	–	94%	–
CC(C)Cn1cc(-c2ccncc2)c(-c2ccc(F)cc2)n1 [Compound 1]	89%	–	82%

Reference: patent US20110183978A1, “Phenylpyri(mi)dinylazoles” (Bayer CropScience AG, priority 2009, published 2011)
